{
  "source": "patent US8110348B2",
  "about": "“Methods and compositions for the diagnosis and treatment of schizophrenia” (priority 2005, dated 2012)",
  "key": {"hippocampal neurons": {"tested_on": "hippocampal neurons", "test": "Primary and secondary dendrite number in cultured hippocampal neurons", "format": "cell-based, rat", "source_text": "In this example, the effects of overexpression of NOS1AP protein in neurons were examined using primary cultures of hippocampal neurons. cDNAs encoding the full-length NOS1AP protein (SEQ ID No. 2) and NOS1AP-S protein (SEQ ID No. 4) were separately cloned into expression vectors and transfected along with GFP (to elucidate neuronal morphology) at 10 days in vitro, a time when dendrite outgrowth and branching is rapidly occurring. It was hypothesized that NOS1AP may affect dendrite number since the NMDA receptor has been implicated in playing a role in regulating dendrite number, and overexpression of NOS1AP is thought to disrupt NMDA receptor signaling. Two days after transfection, the neurons were fixed, and dedrites were counted as described in Akum et al., Nat Neurosci 2004 February; 7(2):145-52, 2004 and Chen et al., Mol Biol Cell 2005 November; 16(11):5103-14. […] Since dendrite morphology is crucial to interneuronal communication, the increases in short-form NOS1AP protein seen in patients suffering from neuropsychiatric disorders, such as schizophrenia and bipolar disorders, may result in altered dendrite morphology in the hippocampus, and perhaps the DLPFC.\nNeuronal cultures were prepared from hippocampi of rat embryos at 18 day gestation as described previously (Firestein et al., 1999). The hippocampi were dissociated, and cells were plated on poly-D-lysine-coated glass coverslips (12 mm diameter) at a density of 1800 cells/mm^2. Cultures were maintained in Neurobasal media supplemented with B27, penicillin, streptomycin, and L-glutamine. Cells were grown for 5-21 days in vitro (DIV) and used for specific experiments as indicated below.\ncDNAs encoding human NOS1AP and several mutant forms of human NOS1AP were cloned into the expression vector pCMV6-XL4 (Origene). These plasmids are referred to directly as NOS1AP (or NOS1AP mutants) without indicating the vector. In addition, the fusion proteins GFP-NOS1AP-L (GFP-NPL), GFP-NOS1AP-S (GFP-NPS), and GFP-NOS1AP-181-307 (GFP-NOS1AP-M, GFP-NPM) were constructed in the pEGFP-C1 vector (Clontech Inc.). Cultured hippocampal neurons were transfected with the appropriate cDNA constructs as follows. Neurons were transfected on DIV 10 using […] following the manufacturer's protocol (Qiagen Inc.). Neurons were transfected on DIV 2, 5, or 7 using LIPOFECTAMINE-2000 following the manufacturer's protocol (Invitrogen Inc.). The Amaxa Nucleofector kit for Rat Neurons (Amaxa Inc., kit VPG-1003) was used to transfect newly dissected neurons (DIV 0) before plating.\nNeurons were fixed in 4% paraformaldehyde in PBS for 30 minutes and then incubated in blocking solution (PBS containing 0.1% Triton X-100, 2% normal goat serum, and 0.02% sodium azide) for 1 h. All antibodies used were diluted in blocking solution. For GFP and NOS1AP or GFP and HA double immunostaining, dilutions of 1:1000 for rat anti-GFP and 1:500 for rabbit anti-NOS1AP, or 1:500 for goat anti-NOS1AP, or 1:1000 for mouse anti-HA (CRP Inc.) were used. […] Labeled cells were visualized by immunofluorescence on an Olympus Optical (Tokyo, Japan) IX50 microscope with a Cooke Sensicam charge-coupled device cooled camera fluorescence imaging system and Image Pro software (Media Cybernetics, Silver Spring, Md.).\nPrimary and secondary dendrite numbers were counted by hand with the experimenter blinded to the conditions (Akum et al., 2004). Pictures of neurons were contrast-enhanced and the numbers of primary and secondary dendrites for each neuron were recorded. […]"}, "NOS1AP": {"tested_on": "NOS1AP", "test": "Knockdown of endogenous NOS1AP protein, immunofluorescence intensity in primary dendrites", "format": "cell-based, rat", "settings": "hippocampal neurons transfected DIV 10, fixed DIV 12 (48 hours)", "source_text": "A) Hippocampal neurons were transfected with either pSUPER-scramble shRNA or pSUPER-NOS1AP shRNA at DIV10 and fixed at DIV12. B) Quantification of primary dendrites shown. C) Hippocampal neurons transfected with the same vectors as in A at DIV10 and fixed and immunostained for NOS1AP at DIV12. Zoomed inset indicates a representative region of primary dendrite showing corresponding fluorescence intensities of anti-NOS1AP. D) Quantification of NOS1AP levels in primary dendrite regions, as represented by normalized (total intensity/area) fluorescence intensity levels. *p<0.05 by Student's t-test.\nA shRNA was constructed to knock down NOS1AP-L with the sequence 5′-[…]-3′ (SEQ ID NO: 22; position 790 of NM_138922) using the pSUPER vector. The resulting siRNA is specific to the long isoform of NOS1AP. […] Importantly, primary dendrite number increases by 67% when NOS1AP is knocked down (FIGS. 16A and B)."}},
  "note": "Entries after “also recorded” stand apart in the source; their conditions may differ.",
  "data": [
    {"compound": "N[C@@H](CCCP(=O)(O)O)C(=O)O", "note": "[APV]", "values": [
      {"measurement": "additional decrease in dendrite branching", "setting": "hippocampal neurons; NOS1AP-L transfected neurons treated with APV", "result": "does not result in any additional decrease"},
      {"measurement": "drop in primary dendrite branching", "setting": "hippocampal neurons; control cells transfected with GFP alone, dosage of APV expected to fully block NMDA receptor function", "result": "approximately 25%"}
    ]},
    {"compound": "COC(=O)[C@@H](N)CCCNC(=N)N[N+](=O)[O-]", "note": "[L-NAME, N(ω)-nitro-L-arginine-methyl ester]", "values": [
      {"measurement": "difference in secondary dendrite number, NOS1AP-Long alone vs with L-NAME", "setting": "hippocampal neurons; 500 μM L-NAME, FIG. 10C", "result": "smaller, yet the distinction was still clear"},
      {"measurement": "effect on NOS1AP-Long effects on dendrite branching", "setting": "hippocampal neurons; L-NAME 500 μM (FIG. 10 legend prints 500 nM) added right after transfection DIV 10, fixed DIV 12", "result": "partial reduction of NOS1AP-Long effects; also recorded: reduced NOS1AP-Long (CP-L) activity"}
    ]},
    {"compound": "shRNA against NOS1AP-L: shRNA to knock down NOS1AP-L, sequence 5′-GCAATATCTTCAGATGCAA-3′ (SEQ ID NO: 22), in the pSUPER vector", "values": [
      {"measurement": "decrease in NOS1AP expression (knockdown of endogenous NOS1AP protein)", "setting": "NOS1AP", "result": 40, "unit": "%"},
      {"measurement": "decrease in NOS1AP expression (knockdown of endogenous NOS1AP protein)", "setting": "NOS1AP; listed as SEQ ID NO: 22", "result": 40, "unit": "%"},
      {"measurement": "decrease in NOS1AP expression (knockdown of endogenous NOS1AP protein)", "setting": "NOS1AP; listed as shRNA Against NOS1AP Coding Sequence (Position 398)", "result": "Approximately 45%"},
      {"measurement": "increase in primary dendrite number", "setting": "hippocampal neurons; NOS1AP knocked down, DIV 10-12, 48 hours, vs scramble shRNA", "result": 67, "unit": "%"}
    ]}
  ]
}
